Where two headings read alike, the source gives them in different places. Where a SMILES comes first, the peptide text is derived from it. Where no end group is shown, it is not given here. [ ]: non-standard residue; d: D form.
Assays:
ERG [1] = target: T1, ERG (Homo sapiens, UniProt P11308); assay: ERG:peptide binding by biolayer interferometry (OctetRED); details: for binding to ERG: OctetRED, result in words
T1 sequence (P11308 1-479): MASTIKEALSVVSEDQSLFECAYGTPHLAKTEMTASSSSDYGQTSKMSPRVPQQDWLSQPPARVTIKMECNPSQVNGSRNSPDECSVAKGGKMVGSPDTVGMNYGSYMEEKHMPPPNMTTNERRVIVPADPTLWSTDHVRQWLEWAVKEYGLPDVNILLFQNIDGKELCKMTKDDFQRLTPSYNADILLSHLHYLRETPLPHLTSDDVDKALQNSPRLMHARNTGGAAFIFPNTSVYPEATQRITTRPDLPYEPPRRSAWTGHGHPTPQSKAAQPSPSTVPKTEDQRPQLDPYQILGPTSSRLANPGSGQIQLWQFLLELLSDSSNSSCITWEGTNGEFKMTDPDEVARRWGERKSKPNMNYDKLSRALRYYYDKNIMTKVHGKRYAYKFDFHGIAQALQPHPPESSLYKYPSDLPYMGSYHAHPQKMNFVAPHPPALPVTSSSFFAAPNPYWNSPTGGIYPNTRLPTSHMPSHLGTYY
Experimental: (§1) The interaction coefficients between ERG and synthetic peptides or peptidomimetics were determined by biolayer interferometry technology using the Octet Red system (ForteBio). Purified ERG and GUS proteins were biotinylated by EZLink NHS-PEG4 Biotinylation Kit (Thermo Scientific) following the manufacturer's protocol and any unincorporated biotin was removed from the reactions with Zeba 2 ml desalt columns (Thermo). Biotinylated proteins (500 μg/ml) were then incubated with super streptavidin biosensors in binding buffer (20 mM HEPES pH 7.4, 150 mM NaCl), blocked with 10 μg/ml biocytin and washed three times in binding buffer. Peptides were serially diluted in binding buffer, mixed with the protein-coupled biosensors and peptidomimetic:protein association/dissociation was monitored for 10 min at 25° C. Nonspecific binding from the signal obtained from peptidomimetic:GUS interactions was subtracted from that of peptidomimetic:ERG interactions and baseline signal drift was controlled by monitoring immobilized ERG without peptide. Octet Red analysis software was used to analyze the data.

[2] = system: VCaP (ERG fusion-positive) xenografts; assay: VCaP xenograft mouse model, tumor growth; details: 20 mg/kg dose, p<0.01
Experimental: Athymic Nude-Foxnlnu male mice were procured from Harlan Laboratories, Inc (Indianapolis, Ind.). All procedures involving mice were approved by the University Committee on Use and Care of Animals (UCUCA) at the University of Michigan and conformed to their relevant regulatory standards. […] Statistical significance for Kaplan-Meier analysis was determined by the log-rank (Mantel-Cox) test.
Athymic Nude-Foxnlnu male mice were procured from Harlan Laboratories, Inc. (Indianapolis, Ind.). VCaP (2×10^6 cells) or PC3 (5×10^5 cells) were resuspended in 100 μl of saline with 50% Matrigel (BD Biosciences, Becton Drive, NJ) and implanted subcutaneously into the flank regions on both sides of the mice. Mice were anesthetized using a cocktail of xylazine (80-120 mg/kg, IP) and ketamine (10 mg/kg, IP) for chemical restraint before tumor cells implantation. For short term assays, all tumors were staged for three weeks before starting peptidomimetic treatment. After week 3 (VCaP cells) or 12 days (PC3 cells), mice (10 per treatment group) were treated with peptidomimetics (25 mg/kg or 10 mg/kg as indicated, IP) daily five times a week.
Tumor growth was recorded every three days using digital calipers and tumor volumes were calculated using the formula (π/6) (L×W2), where L=length of tumor and W=width. Body weight was monitored weekly over the course of the study. At the end of the xenograft studies, mice were anaesthetized and blood was collected by cardiac puncture and tumors were preserved for further biochemical and immunofluorescence analysis. […] Survival analysis was carried out using the GraphPad Prism 4.0 software (GraphPad Software, San Diego, Calif.). Statistical significance for Kaplan-Meier analysis was determined by the log-rank (Mantel-Cox) test. All procedures involving mice were approved by the University Committee on Use and Care of Animals (UCUCA) at the University of Michigan and conform to their relevant regulatory standards.

RWPE1-ERG cells = assay: Boyden chamber basement membrane matrix invasion assay
Experimental: (§2) Complete media was added to the lower chamber as a chemoattractant. […] Invasive cells, located on the lower side of the membranes, were stained with crystal violet, air dried and photographed. To quantify the relative number of invaded cells, colorimetric assays were performed by treating the inserts with 150 μl of 10% acetic acid (v/v) and measuring absorbance of each sample in a spectrophotometer at 560 nm (GE Healthcare).
ERG:AR interaction [3] = target: ERG:AR interaction (Homo sapiens, UniProt P11308); assay: IP-Western blot in VCaP cells
Experimental: (§3) VCaP cells were seeded in 6-well plates at 0.5×10^6 cells/ml and after allowing cells to attach, cells were harvested and homogenized in NP40 lysis buffer (Sigma) containing a complete protease inhibitor cocktail (Roche). Ten micrograms of each protein extract was boiled in SDS sample buffer, size fractionated by SDS-PAGE, and transferred onto a PVDF membrane (GE Healthcare). […] Following three washes in TBS-T, the blots were incubated with horseradish peroxidase conjugated secondary antibody and the signals visualized by enhanced chemiluminescence system according to manufacturer's instructions (GE Healthcare).
(§4) Cell pellets or tumors treated with or without the peptidomimetics were lysed in cell lysis buffer (20 mM MOPS, pH 7.0, 2 mM EGTA, 5 mM EDTA, 30 mM sodium fluoride, 60 mM β-glycerophosphate, 20 mM sodium pyrophosphate, 1 mM sodium orthovanadate, 1% Triton X-100, 1 mM DTT, protease inhibitor cocktail (Roche)). Cell lysates (0.5-1.0 mg) were pre-cleaned with protein A/G agarose beads (Santa Cruz) by incubation for 1 hour with shaking at 4° C. followed by centrifugation at 2000 rpm for 3 minute. Lysates were then incubated with 2 μg ERG antibody (Santa Cruz, C-17) at 4° C. for 4 hours with shaking prior to addition of 20 μl protein A/G agarose beads and incubated at 4° C. overnight. […] Samples were then analyzed by SDS-PAGE and Western blot analysis as described above.

PC3-ERG cells = assay: Boyden chamber basement membrane matrix invasion assay
Experimental: as §2
ERG:DNA-PKcs interaction [4] = target: T2, ERG:DNA-PKcs interaction (Homo sapiens, UniProt P11308); assay: IP-Western blot in VCaP cells
T2 sequence (P11308 33-479 limits assumed): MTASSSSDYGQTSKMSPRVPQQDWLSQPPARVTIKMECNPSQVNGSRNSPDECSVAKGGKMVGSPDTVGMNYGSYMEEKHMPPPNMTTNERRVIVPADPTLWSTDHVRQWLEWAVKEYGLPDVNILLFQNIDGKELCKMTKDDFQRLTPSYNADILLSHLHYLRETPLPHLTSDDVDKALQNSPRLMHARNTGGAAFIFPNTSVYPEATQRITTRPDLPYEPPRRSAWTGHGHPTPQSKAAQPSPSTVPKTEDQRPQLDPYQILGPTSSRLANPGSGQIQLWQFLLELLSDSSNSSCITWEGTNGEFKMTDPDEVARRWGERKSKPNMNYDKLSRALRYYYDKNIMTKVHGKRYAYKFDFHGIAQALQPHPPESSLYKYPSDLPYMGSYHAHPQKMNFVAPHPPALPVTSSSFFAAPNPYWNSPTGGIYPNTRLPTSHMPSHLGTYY
Experimental: as §3, §4

ERG [5] = target: T3, ERG (Homo sapiens, UniProt P11308); assay: Kd[μM]
T3 construct: cDNAs encoding full-length ERG and GUS were cloned into pDEST10 vector; His; made in house; host or cells: SF9 insect cells (Bac-to-Bac baculovirus)
From the text: Table printed on a drawing sheet, FIG. 13
Head of the field: Kd[μM]
Where the first naming reader finds the target: passage: Capping of the EIP1 peptide at both the N- and C-terminus abolished binding to ERG (FIG. 13).

ERG:EBS DNA interaction = target: T4, ERG:EBS DNA interaction (Homo sapiens, UniProt P11308); format: biochemical
T4 construct: endogenous in cells; host or cells: VCaP cells (ATCC): cultured cells, lysates or extracts, or VCaP xenograft tumours in nude mice
Experimental: To determine the inhibitory activity of the peptide against the ERG:DNA interaction, electrophoretic mobility shift assays (EMSAs) were performed. Double stranded ERG ETS binding sequence (5′ […] 3′ (SEQ ID NO:109)) was end labeled using Biotin 3′ End DNA Labeling Kit (Pierce). For each binding reaction, VCaP cell extract was incubated with 1 μg poly d (I-C), 2 μl of EMSA binding buffer (1.5% glycerol, 75 mM KCl, 0.375 mM DTT, 12.5 mM NaCl, 0.375 mM phenylmethylsulfonyl fluoride [PMSF]) and 5 μM biotin-labeled EBS in the presence or absence of the peptides as indicated for 30 min at room temperature. The reaction mixtures were loaded onto 6% TBE gels (Invitrogen) and electrophoresed at 120 V for 2 hr at 4° C. in […] Tris-Borate-EDTA (TBE). Probes were transferred to nylon membrane (Biodyne B, Pall) in a semidry blotting device at 300 mA for 30 min. The membrane was baked for 30 min at 85° C. in a dry oven. Biotinylated oligonucleotides were detected by probing with streptavidin-conjugated horseradish peroxidase and visualized by enhanced chemiluminescence (Pierce).

ERG_Y373A = ERG_Y373A (Homo sapiens, UniProt P11308, Y373A); assay: biochemical; format: binding
ERG_Y373A, sequence (P11308 whole entry Y373A, the tested form may be a part): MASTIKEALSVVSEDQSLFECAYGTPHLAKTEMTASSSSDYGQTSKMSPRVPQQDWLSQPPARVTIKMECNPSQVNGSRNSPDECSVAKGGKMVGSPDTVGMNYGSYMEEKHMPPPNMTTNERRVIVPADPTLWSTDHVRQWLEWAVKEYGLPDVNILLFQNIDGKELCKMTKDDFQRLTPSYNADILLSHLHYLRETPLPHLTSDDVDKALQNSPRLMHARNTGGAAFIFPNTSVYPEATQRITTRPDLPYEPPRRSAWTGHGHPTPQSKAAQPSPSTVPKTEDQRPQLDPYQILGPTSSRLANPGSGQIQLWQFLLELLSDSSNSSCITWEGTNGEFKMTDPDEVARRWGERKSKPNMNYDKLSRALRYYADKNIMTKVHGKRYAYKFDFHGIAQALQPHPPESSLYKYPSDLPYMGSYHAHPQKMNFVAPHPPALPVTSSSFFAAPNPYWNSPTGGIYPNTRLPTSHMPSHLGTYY
Experimental: as §1

[6] = system: cells containing the EWS-FLI1 fusion; assay: DNA damage in Ewing sarcoma cells; format: cell-based
ERG in VCaP cells [7] = target: T5, ERG in VCaP cells (Homo sapiens, UniProt P11308)
Experimental: The following primary and secondary antibodies were used: mouse-anti-ERG (Biocare) and goat-anti-mouse-Cy5 (Jackson Immuno-Research) respectively. […] Emission from individual fluorophores was detected sequentially. Image processing was performed in Imaris and colocalization analysis was done in Imaris (Bitplane). Colocalization was calculated as the percentage of FITC spots that colocalized with ERG spots in the nucleus.

[8] = system: Ewing sarcoma cells containing the EWS-ERG fusion; format: cell-based
From the text: (A) Pull down of ERG in Ewing sarcoma cells containing a EWS-ERG fusion and reduced tumor growth in xenografts models of Ewing sarcoma. (B) Tumors containing the EWS-FLI1 fusion or osteosarcomas (A204) are not affected by treatments with peptides of the disclosure. […] Similarly, invasion potential was reduced by EIP1 and EIP2 treatment in Ewing sarcoma cells containing the EWS-ERG fusion.

ERG:AR interaction [9] = target: T6, ERG:AR interaction (Homo sapiens, UniProt P11308)
T6 sequence (P11308 1-479): T1 sequence (P11308 1-479)
Experimental: (§5) Halo-ERG fusion protein was expressed using in vitro transcription/translation system as described above. […] Protein mixtures were incubated with or without the peptides in PBS-T (0.1% Tween) at 4° C. overnight. Simultaneously, HaloLink beads (Promega) were blocked in 5% BSA at 4° C. overnight. The next day 10 μl of HaloLink beads were mixed with the protein-peptide mixture, incubated at RT for 1 hour, washed with 4× in PBS-T and eluted into SDS sample buffer. […] HaloLink beads without incubation with fusion proteins were used as negative controls.

VCaP cells = assay: Immunofluorescence confocal microscopy of FITC-labeled peptide uptake; format: cell-based; details: FITC-labeled peptides
Experimental: After 2 hours incubation, cells were washed two times in PBS, and fixed for 15 min in 100% methanol. After washing an additional three times in PBS, cells were mounted using Vectashield with DAPI (Vector laboratories). Images were captured using 100× oil objective lens on an Olympus Confocal microscope at the University of Michigan microscopy imaging lab.

ERG:DNA-PKcs interaction [10] = target: T7, ERG:DNA-PKcs interaction (Homo sapiens, UniProt P11308)
T7 sequence (P11308 1-479): T1 sequence (P11308 1-479)
Experimental: as §5

ERG:DNA-PKcs interaction [11] = target: T7, ERG:DNA-PKcs interaction; assay: In vitro peptide competitive pull-down assay (cell-free); details: Halo-ERG with purified DNA-PKcs, increasing peptide concentrations
Experimental: as §5
ERG:AR interaction [12] = target: T6, ERG:AR interaction; assay: as above; details: Halo-ERG with recombinant AR, increasing peptide concentrations
Experimental: as §5

ERG [13] = target: T3, ERG; assay: Kd[μM]; remark: listed apart in the source
From the text: Table printed on a drawing sheet, FIG. 14 Head of the field: Kd[μM] […] Where the first naming reader finds the target: passage: the importance of the PYL residues for binding to ERG was identified

ERG in VCaP cells [14] = target: T5, ERG in VCaP cells; assay: Immunoblot of ERG protein in treated VCaP cells; details: proteasome inhibitor co-treatment
Experimental: as §3

[15] = target: T8, TMPRSS2:ERG gene fusion product (endogenous ERG) (Homo sapiens, UniProt P11308); assay: Biotin-peptide pull-down from VCaP cell lysates, immunoblot and mass spectrometry; format: binding; details: 53 kDa band of pull-downs, mass spectrometry
T8 construct: endogenous in cells; host or cells: VCaP cells (ATCC): cultured cells, lysates or extracts, or VCaP xenograft tumours in nude mice
Experimental: Approximately 1 mg of soluble VCaP cell lysate prepared in RIPA buffer (Invitrogen) was incubated with varying amounts of biotinylated peptides for 2 hours at 4° C. HaloLink agarose beads (20 μl) were added to the peptide-lysate mixture and incubated for an additional 4 hours. Beads were then pelleted by centrifugation, washed three times in PBS-T and loaded into an SDSPAGE gel followed by Western blot analysis. Total VCaP cell lysate was loaded for positive control.
The samples were treated with SDS loading buffer supplied with 10 mM DTT for 5 min at 85° C. The proteins were alkylated by adding iodoacetamide to the final concentration of 15 mM. The samples were subjected to SDS-PAGE and the whole lanes were cut out and digested with trypsin in-gel for 2 hours. […]
The resulting spectrum files were transformed into MGF format by MSConvert software and interrogated by MASCOT 2.4 search engine using human UniProt database version 15 concatenated with reverse sequences for estimation of false discovery rate (FDR) and with a list of common contaminants. […] The peptide FDR was calculated as 2×(decoy_hits)/(target+decoy hits). Spectral counts for all detected proteins were assembled using an in-house written Python script. […]

## CC(C)C[C@@H](NC(=O)[C@@H](CO)NC(=O)[C@@H](Cc1ccccc1)NC(=O)CNC(=O)[C@@H](CO)NC(=O)[C@@H](CC(C)C)NC(=O)[C@H]1CCCN1C(=O)CNC(=O)CNC(=O)[C@@H](CCCNC(=N)N)NC(=O)[C@@H](CCCCN)NC(=O)[C@@H](CCCCN)NC(=O)[C@@H](CCCNC(=N)N)NC(=O)[C@@H](CCCNC(=N)N)NC(=O)[C@@H](CCC(N)=O)NC(=O)[C@@H](CCCNC(=N)N)NC(=O)[C@@H](CCCNC(=N)N)NC(=O)[C@@H](CCCNC(=N)N)NC(=O)CN)C(=O)O [RI-EIP2] (H-G[dR][dR][dR][dQ][dR][dR][dK][dK][dR]GG[dP][dL][dS]G[dF][dS][dL]-OH)
ERG [1]
  Kd: 1.28 µM
[2]
  tumor growth of VCaP xenografts: significantly delayed tumor growth

## LRFGTLP [LRFGTLP]
ERG [1]
  Kd: 7.9 µM

## LPPYLFTGGRKKRRQRRRG [TAT-EIP1]
RWPE1-ERG cells
  invasion of RWPE1-ERG cells: significantly attenuated
ERG:AR interaction [3]
  block of ERG:AR interaction in VCaP cells: significantly blocked
PC3-ERG cells
  PC3 cell invasion driven by overexpression of ERG: inhibited
ERG:DNA-PKcs interaction [4]
  block of ERG:DNA-PKcs interaction in VCaP cells: significantly blocked

## Ac-LPPELFT-NH2 [7LT-4E, Ac- LPPELFT -NH2]
ERG [5]
  Kd: 3.6 µM

## LPPYLFT [EIP1, LPPYLFT]
ERG:EBS DNA interaction
  disruption of ERG:EBS DNA interaction: effectively disrupted
ERG_Y373A
  Kd: > 100 µM
ERG [1]; OctetRED biolayer interferometry, values in text
  Kd: 0.6 µM
[6]
  DNA damage in cells containing the EWS-FLI1 fusion: no effect
ERG in VCaP cells [7]
  extent of green-red colocalization in the nucleus: 78±5%
[8]
  DNA damage caused by oncogenic ERG (EWS-ERG fusion): reduce DNA damage
  invasion potential: reduced
ERG:AR interaction [9]
  disruption of direct ERG:AR interaction: disrupted
VCaP cells
  entry into VCaP cells: did not penetrate the cell membrane
ERG:DNA-PKcs interaction [10]
  disruption of direct ERG:DNA-PKcs interaction: disrupted

## LSFGSLPGGRKKRRQRRRG [TAT-EIP2]
RWPE1-ERG cells
  invasion of RWPE1-ERG cells: significantly attenuated
ERG:AR interaction [3]
  block of ERG:AR interaction in VCaP cells: significantly blocked
PC3-ERG cells
  PC3 cell invasion driven by overexpression of ERG: inhibited
ERG:DNA-PKcs interaction [4]
  block of ERG:DNA-PKcs interaction in VCaP cells: significantly blocked

## LPPALFT [muEIP1, LPPALFT]
ERG [1]
  binding to ERG: failed to bind
ERG:DNA-PKcs interaction [11]
  disruption of direct ERG:DNA-PKcs interaction: not
ERG:AR interaction [12]
  disruption of direct ERG:AR interaction: not

## Ac-LPPYLF-NH2 [6LF-A, Ac- LPPYLF -NH2]
ERG [13]
  Kd: > 100 µM

## CC(C)C[C@H](NC(=O)[C@H](CCc1ccccc1)NC(=O)CN1CCOCC1)C(=O)N[C@@H](Cc1ccccc1)C(=O)N[C@@H](CC(C)C)C(=O)[C@@]1(C)CO1 [carfilzomib]
ERG in VCaP cells [14]
  effect on RI-EIP1-induced degradation of ERG protein: completely inhibited

## FTFGSLP [FTFGSLP]
ERG [1]
  Kd: 3.9 µM

## LPPTFLY [Scr, LPPTFLY, reference compound]
ERG [1]
  binding to ERG: failed to bind

## LSFGSLP [EIP2, LSFGSLP]
[6]
  DNA damage in cells containing the EWS-FLI1 fusion: no effect
[8]
  DNA damage caused by oncogenic ERG (EWS-ERG fusion): reduce DNA damage
  invasion potential: reduced
ERG:AR interaction [9]
  disruption of direct ERG:AR interaction: disrupted
ERG:DNA-PKcs interaction [10]
  disruption of direct ERG:DNA-PKcs interaction: disrupted

## LSAGSAP [muEIP2, LSAGSAP, reference compound]
ERG [1]
  binding to ERG: failed to bind
[15]
  spectral counts for the ERG peptide NTGGAAFIFPNTSVYPEATQR: 2 spectral counts

## H-PPYLFT-NH2 [6PT-N, H2N- PPYLFT -NH2]
ERG [13]
  Kd: 11.5 µM

From patent US10774122B2, “ERG targeted therapy” (The Regents of the University of Michigan, priority 2017, dated 2020)
